{"source": "paper PMC2778250", "about": "(Journal of medicinal chemistry, 2009)", "key": {"LcrF": {"target": "LcrF (Yersinia pestis, UniProt P28808)", "sequence (P28808 whole entry, looked up)": "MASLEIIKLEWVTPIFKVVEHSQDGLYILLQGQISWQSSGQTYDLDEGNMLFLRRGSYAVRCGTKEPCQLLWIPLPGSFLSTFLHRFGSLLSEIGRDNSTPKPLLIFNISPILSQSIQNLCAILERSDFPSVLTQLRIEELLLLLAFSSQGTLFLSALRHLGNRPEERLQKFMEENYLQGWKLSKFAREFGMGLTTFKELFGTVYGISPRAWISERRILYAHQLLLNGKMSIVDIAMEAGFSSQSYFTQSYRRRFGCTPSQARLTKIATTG", "assay": "biochemical", "assay_type": "binding", "conditions": "for IC50: LcrF IC50"}, "[1]": {"tested_on": "T3SS-dependent Y. pseudotuberculosis killing of macrophages"}, "[2]": {"tested_on": "pET-15b supercoiled plasmid DNA", "assay": "In vitro DNA binding assay", "conditions": "100 μg/mL; agarose gel electrophoresis"}, "[3]": {"tested_on": "uninfected J774A.1 murine macrophages", "conditions": "50μg/mL"}, "Y. pseudotuberculosis": {"tested_on": "Y. pseudotuberculosis", "assay_type": "cell-based"}, "SlyA": {"target": "T1, SlyA (Salmonella typhimurium, UniProt P40676)", "T1 sequence (P40676 1-144)": "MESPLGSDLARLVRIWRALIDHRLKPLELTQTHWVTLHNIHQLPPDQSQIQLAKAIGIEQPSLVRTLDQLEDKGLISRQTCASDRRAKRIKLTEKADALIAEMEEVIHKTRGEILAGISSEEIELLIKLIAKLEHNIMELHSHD", "assay": "biochemical", "assay_type": "binding, Salmonella spp."}, "S. aureus": {"tested_on": "S. aureus", "assay": "In vitro antimicrobial susceptibility test", "assay_type": "cell-based"}, "E. coli": {"tested_on": "E. coli", "assay": "In vitro antimicrobial susceptibility test", "assay_type": "cell-based"}}}
{"smiles": "O=C(Cc1ccc(F)cc1)Nc1ccc(-c2nc3ccc([N+](=O)[O-])cc3n2O)cc1", "note": "[Compound 12, 2-(4-Fluoro-phenyl)-N-[4-(1-hydroxy-6-nitro-1H-benzoimidazol-2-yl)-phenyl]-acetamide]", "values": [{"measurement": "inhibitory activity in LcrF-DNA binding assay (in words)", "setting": "LcrF", "result": "no measurable activity"}]}
{"smiles": "O=C(/C=C/c1ccc(-n2cnnc2)cc1)Nc1ccc(-c2nc3ccc([N+](=O)[O-])cc3n2O)cc1", "note": "[Compound 27]", "values": [{"measurement": "inhibitory activity in LcrF-DNA binding assay (in words)", "setting": "LcrF", "result": "loss of activity"}]}
{"smiles": "O=C(NCc1ccc(-c2nc3ccc([N+](=O)[O-])cc3n2O)cc1)c1ccc(F)cc1", "note": "[Compound 11, 4-Fluoro-N-[4-(1-hydroxy-6-nitro-1H-benzoimidazol-2-yl)-benzyl]-benzamide]", "values": [{"measurement": "inhibitory activity in LcrF-DNA binding assay (in words)", "setting": "LcrF", "result": "no measurable activity"}]}
{"smiles": "N#Cc1ccc(/C=C/C(=O)Nc2ccc(-c3nc4ccc([N+](=O)[O-])cc4n3O)cc2)cc1", "note": "[Compound 19]", "values": [{"measurement": "inhibition of Y. pseudotuberculosis cytotoxicity in whole cell assay (in words)", "setting": "[1]", "result": "strongly inhibited cytotoxicity"}]}
{"smiles": "COc1ccc(/C=C/C(=O)Nc2ccc(-c3nc4ccc([N+](=O)[O-])cc4n3O)cc2)c(OC)c1", "note": "[Compound 24, (E)-3-(2,4-Dimethoxy-phenyl)-N-[4-(1-hydroxy-6-nitro-1H-benzoimidazol-2-yl)-phenyl]-acrylamide]", "values": [{"measurement": "inhibitory activity in LcrF-DNA binding assay (in words)", "setting": "LcrF", "result": "loss of activity"}]}
{"smiles": "O=C(CCc1ccc(F)cc1)Nc1ccc(-c2nc3ccc([N+](=O)[O-])cc3n2O)cc1", "note": "[Compound 13, 3-(4-Fluoro-phenyl)-N-[4-(1-hydroxy-6-nitro-1H-benzoimidazol-2-yl)-phenyl]-propionamide]", "values": [{"measurement": "inhibitory activity in LcrF-DNA binding assay (in words)", "setting": "LcrF", "result": "no measurable activity"}]}
{"smiles": "O=C(/C=C/c1ccc(-c2c[nH]cn2)cc1)Nc1ccc(-c2nc3ccc([N+](=O)[O-])cc3n2O)cc1", "note": "[Compound 28]", "values": [{"measurement": "inhibitory activity in LcrF-DNA binding assay (in words)", "setting": "LcrF", "result": "loss of activity"}]}
{"smiles": "CCOc1ccc(-c2nc3ccc(-c4nc5ccc(N6CCN(C)CC6)cc5[nH]4)cc3[nH]2)cc1", "note": "[Hoechst 33342, reference compound]", "values": [{"measurement": "non-specific DNA binding (effect on plasmid migration)", "setting": "[2]", "result": "faint smear on the gel"}]}
{"smiles": "CC(C)c1ccc(/C=C/C(=O)Nc2ccc(-c3nc4ccc([N+](=O)[O-])cc4n3O)cc2)cc1", "note": "[Compound 25, (E)-N-[4-(1-Hydroxy-6-nitro-1H-benzoimidazol-2-yl)-phenyl]-3-(4-isopropyl-phenyl)-acrylamide]", "values": [{"measurement": "inhibitory activity in LcrF-DNA binding assay (in words)", "setting": "LcrF", "result": "loss of activity"}]}
{"smiles": "O=C(/C=C/c1ccc(F)cc1)Nc1ccc(-c2nc3ccc([N+](=O)[O-])cc3n2O)cc1", "note": "[Compound 14, (E)-3-(4-Fluoro-phenyl)-N-[4-(1-hydroxy-6-nitro-1H-benzoimidazol-2-yl)-phenyl]-acrylamide]", "values": [{"measurement": "non-specific DNA binding (effect on plasmid migration)", "setting": "[2]", "result": "non-DNA binding"}, {"measurement": "intrinsic toxicity to uninfected macrophages", "setting": "[3]", "result": "non-cytotoxic"}, {"measurement": "IC50", "setting": "LcrF", "result": "≤ 10", "unit": "µM"}, {"measurement": "antibacterial activity (in words)", "setting": "Y. pseudotuberculosis", "result": "no measurable antibacterial activity"}, {"measurement": "IC50", "setting": "SlyA", "result": "> 53.8", "unit": "µM"}, {"measurement": "antibacterial activity (in words)", "setting": "S. aureus", "result": "no measurable antibacterial activity"}, {"measurement": "antibacterial activity (in words)", "setting": "E. coli", "result": "no measurable antibacterial activity"}]}
{"smiles": "Cc1ccc(/C=C/C(=O)Nc2ccc(-c3nc4ccc([N+](=O)[O-])cc4n3O)cc2)cc1", "note": "[Compound 20, (E)-N-[4-(1-Hydroxy-6-nitro-1H-benzoimidazol-2-yl)-phenyl]-3-p-tolyl-acrylamide]", "values": [{"measurement": "inhibition of Y. pseudotuberculosis cytotoxicity in whole cell assay (in words)", "setting": "[1]", "result": "relatively inactive"}]}
{"smiles": "COc1ccc(/C=C/C(=O)Nc2ccc(-c3nc4ccc([N+](=O)[O-])cc4n3O)cc2)cc1", "note": "[Compound 22, (E)-N-[4-(1-Hydroxy-6-nitro-1H-benzoimidazol-2-yl)-phenyl]-3-(4-methoxy-phenyl)-acrylamide]", "values": [{"measurement": "non-specific DNA binding (effect on plasmid migration)", "setting": "[2]", "result": "non-DNA binding"}, {"measurement": "intrinsic toxicity to uninfected macrophages", "setting": "[3]", "result": "non-cytotoxic"}, {"measurement": "IC50", "setting": "LcrF", "result": "≤ 10", "unit": "µM"}, {"measurement": "antibacterial activity (in words)", "setting": "Y. pseudotuberculosis", "result": "no measurable antibacterial activity"}, {"measurement": "IC50", "setting": "SlyA", "result": "> 55.2", "unit": "µM"}, {"measurement": "antibacterial activity (in words)", "setting": "S. aureus", "result": "no measurable antibacterial activity"}, {"measurement": "antibacterial activity (in words)", "setting": "E. coli", "result": "no measurable antibacterial activity"}]}
{"smiles": "O=C(/C=C/c1ccc(F)cc1)Nc1ccc(-c2nc3ccc([N+](=O)[O-])cc3n2O)nc1", "note": "[Compound 31, (E)-3-(4-Fluoro-phenyl)-N-[6-(1-hydroxy-6-nitro-1H-benzoimidazol-2-yl)-pyridin-3-yl]-acrylamide]", "values": [{"measurement": "inhibition of Y. pseudotuberculosis cytotoxicity in whole cell assay (in words)", "setting": "[1]", "result": "devoid of any measurable activity"}]}
{"smiles": "CN(C)CCN(C)c1cc2nc(-c3ccc(NC(=O)/C=C/c4ccc(F)cc4)cc3)n(O)c2cc1[N+](=O)[O-]", "note": "[Compound 40]", "values": [{"measurement": "non-specific DNA binding (effect on plasmid migration)", "setting": "[2]", "result": "non-specific binding to DNA"}]}
{"smiles": "Cc1cc2nc(-c3ccc(NC(=O)/C=C/c4ccc(F)cc4)cc3)n(O)c2cc1[N+](=O)[O-]", "note": "[Compound 36, (E)-3-(4-Fluoro-phenyl)-N-[4-(1-hydroxy-5-methyl-6-nitro-1H-benzoimidazol-2-yl)-phenyl]-acrylamide]", "values": [{"measurement": "non-specific DNA binding (effect on plasmid migration)", "setting": "[2]", "result": "non-DNA binding"}, {"measurement": "intrinsic toxicity to uninfected macrophages", "setting": "[3]", "result": "non-cytotoxic"}, {"measurement": "IC50", "setting": "LcrF", "result": "≤ 10", "unit": "µM"}, {"measurement": "antibacterial activity (in words)", "setting": "Y. pseudotuberculosis", "result": "no measurable antibacterial activity"}, {"measurement": "IC50", "setting": "SlyA", "result": "> 52", "unit": "µM"}, {"measurement": "antibacterial activity (in words)", "setting": "S. aureus", "result": "no measurable antibacterial activity"}, {"measurement": "antibacterial activity (in words)", "setting": "E. coli", "result": "no measurable antibacterial activity"}]}
